Assays:
[1] = test system: participants with SSc-RP; assay: Average duration of weekly symptomatic RP attacks (minutes); assay type: in vivo, human; conditions: ITT Part A
Source text: The relevant metrics measured by this tool daily are: • Study medication • SSc-RP symptoms (Reporting an attack including duration of attack) • Severity of the attack considering all symptoms of the attack e.g. tingling, numbness, pain, color changes (VAS 0-10 cm scale) • Participant's location at the time of the attack (inside home/outside home) • Selecting symptoms experienced during the attack (tingling, numbness, pain, color changes, other) • Pain rating during the attack (11-point Likert scale) • The RCS based on how much difficulty participants had with Raynaud's today, how many attacks the participant had, and how long they lasted. Participants will also be asked to consider how much pain, numbness, or other symptoms the Raynaud's caused in fingers (including painful sores), and how much the Raynaud's alone affected the use of hands today (VAS 0-10 cm scale).
The absolute change in average duration of weekly RP attacks from baseline to the end of each dosing period was and will be a secondary outcome variable. The sponsor-developed participant-informed diary was and will be used to record data. Average duration of weekly RP attacks is defined as the total duration of RP attacks divided by total number of RP attacks within the last 7 days of each dosing period. Total duration of RP attacks during the last 7 days of screening period divided by the total number of RP attacks will be used as baseline for the analysis of all periods. The variable will be calculated similar to frequency data as before.

[2] = test system: participants with SSc-RP; assay: SHAQ Visual Analog Scale - Breathing Problems; assay type: in vivo, human; parameters: Visual Analog Scale-Breathing Problems, Baseline, Mean / Visual Analog Scale-Breathing Problems, Baseline, Median / Visual Analog Scale-Breathing Problems, In Clinic Visit (Day 12), Mean / Visual Analog Scale-Breathing Problems, In Clinic Visit (Day 12), Median / Visual Analog Scale-Breathing Problems, Change from Baseline, Mean / Visual Analog Scale-Breathing Problems, Change from Baseline, Median: scale not given here; conditions: for Visual Analog Scale-Breathing Problems, Baseline, Median: Modified ITT, Part A; for % improvement in Breathing (median): mITT
Protocol: Results: Patients in the study were administered the Scleroderma Health Assessment Questionnaire (SHAQ) at the time of study entry and during clinic visits following the treatment period. The study is a two-part, parallel arm design, prospective, double-blind, randomized study conducted in Australia (Flinders Medical Center). 27 patients were randomized into the first phase of the study, following which a DSMB meeting was held, which reviewed data on the primary study endpoint and key Raynaud's secondary endpoints. Data on the SHAQ was not available for the DSMB to review. The mITT population, in which any data was available post treatment was 24 patients was the analysis population for this first part of the study. The second part (i.e., part B) of the study will randomize 36 patients in a double blind, randomized, prospective, placebo controlled, crossover study. In the first part (i.e., Part A) of the study for which data is presented, patients were randomized into 6 groups, cilnidipine at two doses (10 and 20 mg) alone and in combination with tadalafil 5 mg, tadalafil 5 mg alone, and placebo. […] The DSMB recommended that the study proceed into its double blind prospective cross overpowered second phase and compare cilnidipine 20 mg alone to placebo. […] Cilnidipine treatment may reduce patient-reported SSc disease disability compared to placebo • b. Cilnidipine treatment may reduce patient-reported SSc disease alternative disability compared to placebo • c. Cilnidipine treatment may reduce patient-reported SSc disease pain* compared to placebo • d. Cilnidipine treatment may reduce patient-reported SSc disease severity compared to placebo • e. Cilnidipine treatment may reduce patient-reported SSc disease skin ulcer severity rating compared to placebo • f Cilnidipine treatment may reduce patient-reported SSc disease breathing difficulty compared to placebo • g. […] SSc disease pain comprises not only pain from Raynaud's but joint pain, headache, odynophagia, back pain, pain from skin ulceration, and neuropathic pain). Table E includes results of the Scleroderma Health Assessment Questionnaire.

[3] = Baseline RCS subgroup 1 (Table B-3, stratum not given), last 7 days of dosing period, listed as Cilnidipine 10 mg
[4] = Baseline RCS subgroup 1 (Table B-3, stratum not given), last 7 days of dosing period, listed as Cilnidipine 20 mg
[5] = Baseline RCS subgroup 1 (Table B-3, stratum not given), last 7 days of dosing period, listed as Pooled Cilnidipine
[6] = Baseline RCS subgroup 1 (Table B-3, stratum not given), last 7 days of screening period, listed as Cilnidipine 10 mg
[7] = Baseline RCS subgroup 1 (Table B-3, stratum not given), last 7 days of screening period, listed as Cilnidipine 20 mg
[8] = Baseline RCS subgroup 1 (Table B-3, stratum not given), last 7 days of screening period, listed as Pooled Cilnidipine

## COCCOC(=O)C1=C(C)NC(C)=C(C(=O)OC/C=C/c2ccccc2)C1c1cccc([N+](=O)[O-])c1 (centres unmarked) [Cilnidipine, 1,4-dihydro-2,6-dimethyl,4-(3-nitrophenyl)-3,5-pyridinedicarboxylic acid 2-methoxyethyl (2 E)-3-phenyl-2-propenyl ester]
[1]; Excluding Outliers, Baseline RCS subgroup 1 (Table B-4, stratum not given), last 7 days of screening period, listed as Pooled Cilnidipine
  Average duration of weekly symptomatic RP attacks, Baseline, Q3: 48.38 min
[1]; [3]
  Average Duration of weekly symptomatic RP attacks, Max: 31.6, 31.6 minutes
  Average Duration of weekly symptomatic RP attacks, Min: 31.6, 31.6 minutes
  Average duration of weekly symptomatic RP attacks, Change from Baseline, Max: −16.7, −16.7 minutes
  Average duration of weekly symptomatic RP attacks, Change from Baseline, Q1: −16.74, −16.74 minutes
  Average duration of weekly symptomatic RP attacks, Change from Baseline, Q3: −16.74, −16.74 minutes
  Average duration of weekly symptomatic RP attacks, Percent Change from Baseline, Max: −34.6, −34.6%
  Average duration of weekly symptomatic RP attacks, Percent Change from Baseline, Min: −34.6, −34.6%
  Average duration of weekly symptomatic RP attacks, Percent Change from Baseline, Q3: −34.60, −34.60%
[1]; [4]
  Average Duration of weekly symptomatic RP attacks: 3.0 min
  Average Duration of weekly symptomatic RP attacks, Max: 30.5 min
  Average Duration of weekly symptomatic RP attacks, Q1: 3.00 min
  Average Duration of weekly symptomatic RP attacks, Q3: 30.45 min
  Average duration of weekly symptomatic RP attacks, Change from Baseline: -10.3 min
  Average duration of weekly symptomatic RP attacks, Change from Baseline, Max: 4.1 min
  Average duration of weekly symptomatic RP attacks, Change from Baseline, Q1: -10.33 min
  Average duration of weekly symptomatic RP attacks, Change from Baseline, Q3: 4.07 min
  Average duration of weekly symptomatic RP attacks, Percent Change from Baseline, Max: 15.4%
  Average duration of weekly symptomatic RP attacks, Percent Change from Baseline, Min: −77.5%
  Average duration of weekly symptomatic RP attacks, Percent Change from Baseline, Q1: −77.50%
[1]; [5]
  Average Duration of weekly symptomatic RP attacks: 3.0 min
  Average Duration of weekly symptomatic RP attacks, Max: 31.6 min
  Average Duration of weekly symptomatic RP attacks, Q1: 3.00 min
  Average Duration of weekly symptomatic RP attacks, Q3: 31.64 min
  Average duration of weekly symptomatic RP attacks, Change from Baseline: -16.7 min
  Average duration of weekly symptomatic RP attacks, Change from Baseline, Max: 4.1 min
  Average duration of weekly symptomatic RP attacks, Change from Baseline, Q1: -16.74 min
  Average duration of weekly symptomatic RP attacks, Change from Baseline, Q3: 4.07 min
  Average duration of weekly symptomatic RP attacks, Percent Change from Baseline, Max: 15.4%
  Average duration of weekly symptomatic RP attacks, Percent Change from Baseline, Median: −34.60%
  Average duration of weekly symptomatic RP attacks, Percent Change from Baseline, Min: −77.5%
  Average duration of weekly symptomatic RP attacks, Percent Change from Baseline, Q1: −77.50%
[1]; [6]
  Average duration of weekly symptomatic RP attacks, Baseline, Max: 48.4, 48.4 minutes
  Average duration of weekly symptomatic RP attacks, Baseline, Mean: 48.38 min
  Average duration of weekly symptomatic RP attacks, Baseline, Median: 48.38 min
  Average duration of weekly symptomatic RP attacks, Baseline, Min: 48.4, 48.4 minutes
  Average duration of weekly symptomatic RP attacks, Baseline, Q1: 48.38, 48.38 minutes
  Average duration of weekly symptomatic RP attacks, Baseline, Q3: 48.38, 48.38 minutes
[1]; [7]
  Average duration of weekly symptomatic RP attacks, Baseline: 13.3 min
  Average duration of weekly symptomatic RP attacks, Baseline, Max: 26.4 min
  Average duration of weekly symptomatic RP attacks, Baseline, Mean: 19.86 min
  Average duration of weekly symptomatic RP attacks, Baseline, Median: 19.86 min
  Average duration of weekly symptomatic RP attacks, Baseline, Q1: 13.33 min
  Average duration of weekly symptomatic RP attacks, Baseline, Q3: 26.39 min
[1]; [8]
  Average duration of weekly symptomatic RP attacks, Baseline: 13.3 min
  Average duration of weekly symptomatic RP attacks, Baseline, Max: 48.4 min
  Average duration of weekly symptomatic RP attacks, Baseline, Mean: 29.37 min
  Average duration of weekly symptomatic RP attacks, Baseline, Median: 26.39 min
  Average duration of weekly symptomatic RP attacks, Baseline, Q1: 13.33 min
  Average duration of weekly symptomatic RP attacks, Baseline, Q3: 48.38 min
[2]; Cilnidipine 10 mg
  Visual Analog Scale-Breathing Problems, Baseline, Median: 0.000
[2]; Cilnidipine 20 mg (n = 3), SHAQ
  % improvement in Breathing (median): 67% (median)
[2]; Cilnidipine 20 mg (n = 3), last footnote
  VAS - Breathing problems, Baseline on a 0-10 VAS: **Baseline was 1.13 on a 0-10 VAS
[2]; Cilnidipine 20 mg
  Visual Analog Scale-Breathing Problems, Baseline, Median: 1.200
[2]; Example 4, SHAQ, mITT Part A
  patient-reported SSc disease breathing difficulty compared to placebo: may reduce
[2]; Pooled Cilnidipine (n = 7), SHAQ
  % improvement in Breathing (median): 41% (median)
